In doi:10.1101/2021.04.08.439011v1 (biorxiv, 2021):
Where two headings read alike, the source gives them in different places.

How the values were obtained:
[1] = target: ACVR1B (Homo sapiens, UniProt P36896); details: 0.1 µM; binder
[2] = target: CAMK1D (Homo sapiens, UniProt Q8IU85); details: 0.1 µM; binder
[3] = target: CAMK1G (Homo sapiens, UniProt Q96NX5); details: 0.1 µM; binder
[4] = target: CAMK4 (Homo sapiens, UniProt Q16566); details: 0.1 µM; binder
[5] = target: CASK (Homo sapiens, UniProt O14936); details: 0.1 µM; binder
[6] = target: CDK8 (Homo sapiens, UniProt P49336); details: 0.1 µM; binder
[7] = target: CLK1 (Homo sapiens, UniProt P49759); details: 0.1 µM; binder
[8] = target: CLK2 (Homo sapiens, UniProt P49760); details: 0.1 µM; binder
[9] = target: CSF1R (Homo sapiens, UniProt P07333); details: 0.1 µM, binder
[10] = target: CSNK1A1L (Homo sapiens, UniProt Q8N752); details: 0.1 µM; binder
[11] = target: CSNK2A1 (Homo sapiens, UniProt P68400); details: 0.1 µM; binder
[12] = target: DAPK1 (Homo sapiens, UniProt P53355); details: 0.1 µM; binder
[13] = target: DAPK2 (Homo sapiens, UniProt Q9UIK4); details: 0.1 µM; binder
[14] = target: EGFR(L858R) (Homo sapiens, UniProt P00533, L858R); details: 0.1 µM; binder
[15] = target: GRK1 (Homo sapiens, UniProt Q15835); details: 0.1 µM; binder
[16] = target: GRK2 (Homo sapiens, UniProt P25098); details: 0.1 µM; binder
[17] = target: HIPK2 (Homo sapiens, UniProt Q9H2X6); details: 0.1 µM; binder
[18] = target: HIPK4 (Homo sapiens, UniProt Q8NE63); details: 0.1 µM; binder
[19] = target: IKK-beta (Homo sapiens, UniProt O14920); details: 0.1 µM; binder
[20] = target: KIT(V559D,T670I) (Homo sapiens, UniProt P10721, T670I/V559D); details: 0.1 µM; binder
[21] = target: LIMK1 (Homo sapiens, UniProt P53667); details: 0.1 µM; binder
[22] = target: MAP4K4 (Homo sapiens, UniProt O95819); details: 0.1 µM; binder
[23] = target: MST1R (Homo sapiens, UniProt Q04912); details: 0.1 µM; binder
[24] = target: NEK4 (Homo sapiens, UniProt P51957); details: 0.1 µM; binder
[25] = target: PCTK2 (Homo sapiens, UniProt Q00537); details: 0.1 µM; binder
[26] = target: PIK3CA(C420R) (Homo sapiens, UniProt P42336, C420R); details: 0.1 µM; binder
[27] = target: PIK4CB (Homo sapiens, UniProt Q9UBF8); details: 0.1 µM; binder
[28] = target: SRMS (Homo sapiens, UniProt Q9H3Y6); details: 0.1 µM; binder
[29] = target: TNK2 (Homo sapiens, UniProt Q07912); details: 0.1 µM; binder
[30] = target: ULK1 (Homo sapiens, UniProt O75385); details: 0.1 µM; binder
[31] = target: WNK1 (Homo sapiens, UniProt Q9H4A3); details: 0.1 µM; binder

Sequence of CSF1R (P07333 whole entry): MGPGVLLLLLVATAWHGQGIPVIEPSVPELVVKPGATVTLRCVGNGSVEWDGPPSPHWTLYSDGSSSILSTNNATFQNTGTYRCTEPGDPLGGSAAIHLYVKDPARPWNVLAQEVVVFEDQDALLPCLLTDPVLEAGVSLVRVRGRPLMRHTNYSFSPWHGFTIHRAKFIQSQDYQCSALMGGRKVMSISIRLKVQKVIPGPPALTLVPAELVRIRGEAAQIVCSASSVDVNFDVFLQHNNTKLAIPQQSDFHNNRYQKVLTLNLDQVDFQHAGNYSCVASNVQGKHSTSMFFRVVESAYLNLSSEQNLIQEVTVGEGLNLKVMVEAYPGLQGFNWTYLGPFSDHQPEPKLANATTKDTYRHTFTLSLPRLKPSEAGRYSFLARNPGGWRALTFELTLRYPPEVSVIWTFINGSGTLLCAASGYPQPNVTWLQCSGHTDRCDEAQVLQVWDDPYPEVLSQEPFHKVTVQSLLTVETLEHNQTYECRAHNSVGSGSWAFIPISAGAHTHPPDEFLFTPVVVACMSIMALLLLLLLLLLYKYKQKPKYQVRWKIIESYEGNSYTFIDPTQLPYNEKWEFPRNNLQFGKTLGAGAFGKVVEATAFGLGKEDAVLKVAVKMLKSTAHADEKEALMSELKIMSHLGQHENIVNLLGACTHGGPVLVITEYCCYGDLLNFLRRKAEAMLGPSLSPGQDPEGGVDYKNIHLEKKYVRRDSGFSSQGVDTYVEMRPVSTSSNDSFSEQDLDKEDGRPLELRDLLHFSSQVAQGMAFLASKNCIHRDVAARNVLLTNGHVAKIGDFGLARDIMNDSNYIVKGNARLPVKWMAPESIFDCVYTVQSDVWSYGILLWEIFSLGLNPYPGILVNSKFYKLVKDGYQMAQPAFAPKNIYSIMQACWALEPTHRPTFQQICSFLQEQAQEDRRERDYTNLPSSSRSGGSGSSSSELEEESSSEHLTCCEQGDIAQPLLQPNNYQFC
Sequence of CSNK1A1L (Q8N752 whole entry): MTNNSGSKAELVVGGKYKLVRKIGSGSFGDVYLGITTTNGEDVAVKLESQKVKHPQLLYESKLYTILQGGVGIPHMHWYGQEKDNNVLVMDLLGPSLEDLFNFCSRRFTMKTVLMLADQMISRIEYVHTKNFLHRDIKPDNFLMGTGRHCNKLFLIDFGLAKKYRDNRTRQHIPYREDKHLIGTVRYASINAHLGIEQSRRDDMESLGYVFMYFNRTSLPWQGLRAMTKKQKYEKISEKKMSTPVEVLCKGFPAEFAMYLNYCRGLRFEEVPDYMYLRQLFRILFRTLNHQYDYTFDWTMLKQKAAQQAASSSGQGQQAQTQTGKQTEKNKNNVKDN
Sequence of CAMK1G (Q96NX5 whole entry): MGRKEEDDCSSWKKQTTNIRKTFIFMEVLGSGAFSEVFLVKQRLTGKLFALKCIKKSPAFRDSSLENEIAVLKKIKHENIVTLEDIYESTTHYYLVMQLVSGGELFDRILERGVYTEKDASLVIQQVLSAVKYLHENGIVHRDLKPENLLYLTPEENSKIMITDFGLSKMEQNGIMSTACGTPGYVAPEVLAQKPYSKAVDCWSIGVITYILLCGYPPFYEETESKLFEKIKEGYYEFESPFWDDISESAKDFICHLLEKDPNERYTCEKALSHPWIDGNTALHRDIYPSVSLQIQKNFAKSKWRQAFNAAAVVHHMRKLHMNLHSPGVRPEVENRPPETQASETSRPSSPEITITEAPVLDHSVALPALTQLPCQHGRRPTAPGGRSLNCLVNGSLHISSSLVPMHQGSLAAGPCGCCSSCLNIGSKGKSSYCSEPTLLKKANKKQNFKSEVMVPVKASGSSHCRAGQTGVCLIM
Sequence of HIPK4 (Q8NE63 whole entry): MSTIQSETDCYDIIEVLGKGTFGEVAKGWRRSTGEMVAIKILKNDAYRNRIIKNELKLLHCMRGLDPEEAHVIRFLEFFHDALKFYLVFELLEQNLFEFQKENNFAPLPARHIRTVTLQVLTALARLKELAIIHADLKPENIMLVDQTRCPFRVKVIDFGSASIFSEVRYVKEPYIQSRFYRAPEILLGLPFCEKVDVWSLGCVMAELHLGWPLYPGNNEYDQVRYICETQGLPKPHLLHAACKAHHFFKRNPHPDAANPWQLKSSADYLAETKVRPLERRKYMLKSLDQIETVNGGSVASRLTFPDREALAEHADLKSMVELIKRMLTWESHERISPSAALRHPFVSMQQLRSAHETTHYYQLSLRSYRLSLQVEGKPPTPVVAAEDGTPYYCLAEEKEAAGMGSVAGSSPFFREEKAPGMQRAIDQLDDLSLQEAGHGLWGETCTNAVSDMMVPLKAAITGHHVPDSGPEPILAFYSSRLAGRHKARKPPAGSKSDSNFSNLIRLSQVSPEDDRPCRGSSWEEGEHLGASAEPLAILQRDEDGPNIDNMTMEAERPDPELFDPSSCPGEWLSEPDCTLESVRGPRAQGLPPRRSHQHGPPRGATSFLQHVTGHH
Sequence of IKK-beta (O14920 whole entry): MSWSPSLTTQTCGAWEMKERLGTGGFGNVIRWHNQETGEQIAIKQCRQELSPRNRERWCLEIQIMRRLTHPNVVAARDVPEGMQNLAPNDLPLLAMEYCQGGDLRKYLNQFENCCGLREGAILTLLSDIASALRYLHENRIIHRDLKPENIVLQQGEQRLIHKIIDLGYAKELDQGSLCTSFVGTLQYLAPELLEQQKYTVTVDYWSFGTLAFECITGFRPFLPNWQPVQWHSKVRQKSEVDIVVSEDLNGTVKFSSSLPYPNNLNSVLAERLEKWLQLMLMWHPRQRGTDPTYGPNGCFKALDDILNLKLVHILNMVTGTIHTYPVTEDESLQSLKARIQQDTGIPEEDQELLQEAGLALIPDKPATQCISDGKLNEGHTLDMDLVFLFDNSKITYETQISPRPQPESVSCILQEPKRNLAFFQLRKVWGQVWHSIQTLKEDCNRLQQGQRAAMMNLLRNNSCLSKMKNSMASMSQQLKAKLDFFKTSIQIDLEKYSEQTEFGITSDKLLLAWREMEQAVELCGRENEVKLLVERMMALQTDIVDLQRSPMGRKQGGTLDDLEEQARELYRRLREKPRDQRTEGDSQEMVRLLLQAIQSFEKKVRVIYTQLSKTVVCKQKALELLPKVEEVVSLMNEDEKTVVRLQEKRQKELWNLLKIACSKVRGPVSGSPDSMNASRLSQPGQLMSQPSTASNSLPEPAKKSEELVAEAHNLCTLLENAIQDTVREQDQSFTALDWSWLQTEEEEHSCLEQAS
Sequence of LIMK1 (P53667 whole entry): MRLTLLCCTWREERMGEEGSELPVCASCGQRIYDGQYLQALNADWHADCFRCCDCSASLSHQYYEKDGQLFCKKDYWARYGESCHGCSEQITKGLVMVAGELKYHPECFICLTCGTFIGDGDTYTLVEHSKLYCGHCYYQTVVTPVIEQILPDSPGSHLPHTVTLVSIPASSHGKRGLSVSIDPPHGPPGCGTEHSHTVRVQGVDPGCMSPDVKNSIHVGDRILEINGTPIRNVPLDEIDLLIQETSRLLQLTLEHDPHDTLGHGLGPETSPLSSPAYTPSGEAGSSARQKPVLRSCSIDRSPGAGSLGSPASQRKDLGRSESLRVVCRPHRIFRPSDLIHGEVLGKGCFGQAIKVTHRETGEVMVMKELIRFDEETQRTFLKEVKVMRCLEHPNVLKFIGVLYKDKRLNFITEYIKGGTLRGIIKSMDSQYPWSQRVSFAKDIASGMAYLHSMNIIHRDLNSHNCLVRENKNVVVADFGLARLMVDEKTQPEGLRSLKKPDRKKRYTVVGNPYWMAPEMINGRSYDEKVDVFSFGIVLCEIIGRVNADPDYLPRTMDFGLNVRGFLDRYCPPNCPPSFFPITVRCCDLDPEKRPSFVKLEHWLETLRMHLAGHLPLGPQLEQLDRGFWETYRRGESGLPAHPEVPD
Sequence of GRK1 (Q15835 whole entry): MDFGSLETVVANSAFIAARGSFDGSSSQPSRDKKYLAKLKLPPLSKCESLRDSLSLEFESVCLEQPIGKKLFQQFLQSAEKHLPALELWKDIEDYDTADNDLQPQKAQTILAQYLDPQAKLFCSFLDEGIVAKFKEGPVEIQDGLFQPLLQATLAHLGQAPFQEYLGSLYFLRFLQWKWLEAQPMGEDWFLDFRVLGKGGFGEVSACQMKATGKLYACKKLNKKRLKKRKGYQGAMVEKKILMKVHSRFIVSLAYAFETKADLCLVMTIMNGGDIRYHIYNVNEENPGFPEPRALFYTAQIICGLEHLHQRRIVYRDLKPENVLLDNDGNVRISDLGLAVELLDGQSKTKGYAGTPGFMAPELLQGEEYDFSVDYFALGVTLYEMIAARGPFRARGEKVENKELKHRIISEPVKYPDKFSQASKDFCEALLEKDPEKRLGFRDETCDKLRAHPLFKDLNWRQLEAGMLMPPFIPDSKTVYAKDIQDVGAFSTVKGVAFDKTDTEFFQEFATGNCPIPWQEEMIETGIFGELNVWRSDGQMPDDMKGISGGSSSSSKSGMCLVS
Sequence of CLK1 (P49759 whole entry): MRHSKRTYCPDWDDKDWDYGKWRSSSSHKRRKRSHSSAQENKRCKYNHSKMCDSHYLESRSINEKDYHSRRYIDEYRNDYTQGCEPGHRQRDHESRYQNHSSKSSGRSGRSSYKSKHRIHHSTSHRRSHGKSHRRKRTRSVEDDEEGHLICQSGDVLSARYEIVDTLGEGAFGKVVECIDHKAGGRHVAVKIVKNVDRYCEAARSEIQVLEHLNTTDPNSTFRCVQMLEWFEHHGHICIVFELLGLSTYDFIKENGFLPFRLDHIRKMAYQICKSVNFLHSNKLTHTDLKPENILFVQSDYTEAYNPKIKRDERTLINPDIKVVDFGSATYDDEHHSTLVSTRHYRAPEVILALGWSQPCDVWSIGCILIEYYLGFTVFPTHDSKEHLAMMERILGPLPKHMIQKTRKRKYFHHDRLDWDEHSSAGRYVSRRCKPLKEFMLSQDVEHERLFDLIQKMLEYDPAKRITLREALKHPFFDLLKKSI

CNc1ncc2cc(-c3ccc(-c4cccc(C)n4)cc3Cl)c(=O)n(C[C@H]3OC[C@H](N)CO3)c2n1 [compound 6, G-5555]
Percent Control [1]: 100%
Percent Control [2]: 43%
Percent Control [3]: 100%
Percent Control [4]: 100%
Percent Control [5]: 96%
Percent Control [6]: 100%
Percent Control [7]: 100%
Percent Control [8]: 100%
Percent Control [9]: 89%
Percent Control ([9]; autoinhibited): 97%
Percent Control [10]: 100%
Percent Control [11]: 88%
Percent Control [12]: 100%
Percent Control [13]: 100%
Percent Control [14]: 100%
Percent Control [15]: 100%
Percent Control [16]: 97%
Percent Control [17]: 100%
Percent Control [18]: 95%
Percent Control [19]: 93%
Percent Control [20]: 98%
Percent Control [21]: 93%
Percent Control [22]: 100%
Percent Control [23]: 73%
Percent Control [24]: 100%
Percent Control [25]: 100%
Percent Control [26]: 80%
Percent Control [27]: 97%
Percent Control [28]: 99%
Percent Control [29]: 92%
Percent Control [30]: 100%
Percent Control [31]: 100%
